Where a name gives a salt, the structure may show the parent alone.
Key:
[1] = test system: cerebellar granule cells (CGC); assay: Antiapoptotic capacity (rescue) in cerebellar granule cells induced into apoptosis by cytosine arabinoside (CGC assay); assay type: cell-based, Wistar rat; conditions: for Rescue by Amino Tetrazoles in the CGC Assay, Rescue (overall yes/no) / Rescue by Amino Acids and Esters in the CGC Assay, Rescue (overall yes/no) / Rescue by Amino Nitriles in the CGC Assay, Rescue (overall yes/no) / Rescue by Amino Phosphonic Acids in the CGC Assay, Rescue (overall yes/no): overall over 10^−6, 10^−9, 10^−12 M
Source text: In Vitro Protocol for Assessing the Antiapoptotic Capacity of Various Compounds in Cerebellar Granule Cells
Cultures of cerebellar granule cells (CGC) can be induced into apoptosis by the addition of a high concentration of cytosine arabinoside (AraC). It has been shown that this is a p53 dependent apoptosis. We have measured the antiapoptotic effect of some amino acids, amino esters, amino phosphonic acids, amino nitriles and amino tetrazoles using this system.
Cultures of CGC were obtained from 6-8 day old Wistar rat pups. Cultures were grown on glass in 35 mm petri dishes for three days and then used for experiments. Aliquots (20 ul) of drug solutions (AraC, anti-apoptotic drugs, drug vehicles) were added to the medium of the culture. 24 Hours later the cultures were fixed with FAM, and stained with bis-benzamide. Normal and apoptotic nuclei were counted to a total of 90-120 cells per culture.

[2] = compound 10^−6 M, AraC 300 uM-induced apoptosis, 24 hours
[3] = compound 10^−9 M, AraC 300 uM-induced apoptosis, 24 hours
[4] = compound 10^−12 M, AraC 300 uM-induced apoptosis, 24 hours

CCOC(=O)CNC(C)C (as salt: hydrochloride)
melting point: 120 to 121 °C

CCCCC[C@H](C)NCCC(=O)OC (stereo in doubt) (as salt: hydrochloride)
melting point: 89.5 to 90.5 °C

CCCCCC(C)NCCC(=O)O (stereo in doubt) (as salt: hydrochloride) [R-2-Heptyl (B-Alanines), (R)-3-(2-Heptylamino)propionic acid hydrochloride]
melting point: 57 to 58 °C

CCCCCC(C)NCCC#N (stereo in doubt) (as salt: hydrochloride) [R-2-Heptyl (Propionitriles), (R)-3-(2-Heptylamino)propionitrile hydrochloride]
melting point: 134 to 135 °C

CCCCCC(C)N(C)CCC#N (stereo in doubt) (as salt: hydrochloride) [R-2-Heptyl-N-methyl (Propionitriles), (R)-3-(2-Heptylmethylamino)propionitrile hydrochloride]
melting point: 98 to 98.5 °C

CCCCCC(C)NCC#N (stereo in doubt) (as salt: hydrochloride) [R-2-heptyl (Acetonitriles), (R)-2-(2-Heptylamino)acetonitrile hydrochloride]
melting point: 152 to 153 °C

CCCCCC(C)NCCc1nnn[nH]1 (stereo in doubt) [R-2-Heptyl (Amino Tetrazoles), (R)-2-(2-Heptylamino)ethane-5-tetrazole hydrochloride]
Rescue by Amino Tetrazoles in the CGC Assay, 10^−6 M [1, 2]: R
Rescue by Amino Tetrazoles in the CGC Assay, 10^−9 M [1, 3]: R
Rescue by Amino Tetrazoles in the CGC Assay, 10^−12 M [1, 4]: R
Rescue by Amino Tetrazoles in the CGC Assay, Rescue (overall yes/no) [1]: yes

CCCCCC(C)NCCC(=O)O (stereo in doubt) [R-2-Heptyl (B-Alanines), (R)-3-(2-Heptylamino)propionic acid hydrochloride]
Rescue by Amino Acids and Esters in the CGC Assay, 10^−9 M [1, 3]: R
Rescue by Amino Acids and Esters in the CGC Assay, 10^−12 M [1, 4]: R
Rescue by Amino Acids and Esters in the CGC Assay, Rescue (overall yes/no) [1]: yes

CCCCCC(C)NCC(=O)O (stereo in doubt) [R-2-Heptyl (Glycines), (R)-2-(2-Heptylamino)acetic acid hydrochloride]
Rescue by Amino Acids and Esters in the CGC Assay, Rescue (overall yes/no) [1]: no

CCCCCC(C)NCCC#N (stereo in doubt) [R-2-Heptyl (Propionitriles), (R)-3-(2-Heptylamino)propionitrile hydrochloride]
Rescue by Amino Nitriles in the CGC Assay, 10^−9 M [1, 3]: R
Rescue by Amino Nitriles in the CGC Assay, 10^−12 M [1, 4]: R
Rescue by Amino Nitriles in the CGC Assay, Rescue (overall yes/no) [1]: yes

CCCCCC(C)N(C)CCC#N (stereo in doubt) [R-2-Heptyl-N-methyl (Propionitriles), (R)-3-(2-Heptylmethylamino)propionitrile hydrochloride]
Rescue by Amino Nitriles in the CGC Assay, 10^−9 M [1, 3]: R
Rescue by Amino Nitriles in the CGC Assay, Rescue (overall yes/no) [1]: yes

CCCCCC(C)NCC#N (stereo in doubt) [R-2-heptyl (Acetonitriles), (R)-2-(2-Heptylamino)acetonitrile hydrochloride]
Rescue by Amino Nitriles in the CGC Assay, Rescue (overall yes/no) [1]: no

CCCCCCNCC#N.Cl [1-Hexyl (Acetonitriles), 2-(1-Hexylamino)acetonitrile hydrochloride]
Rescue by Amino Nitriles in the CGC Assay, 10^−9 M [1, 3]: R
Rescue by Amino Nitriles in the CGC Assay, 10^−12 M [1, 4]: R
Rescue by Amino Nitriles in the CGC Assay, Rescue (overall yes/no) [1]: yes

CCCCCCNCCP(=O)(O)O.Cl [1-Hexyl (Amino Phosphonic Acids), 2-(1-Hexylamino)ethanephosphonic acid hydrochloride]
Rescue by Amino Phosphonic Acids in the CGC Assay, Rescue (overall yes/no) [1]: no

CCCCCCNCCC(=O)OC [1-Hexyl (B-Alaninates), Methyl 3-(1-hexylamino)propionate hydrochloride]
Rescue by Amino Acids and Esters in the CGC Assay, 10^−9 M [1, 3]: R
Rescue by Amino Acids and Esters in the CGC Assay, 10^−12 M [1, 4]: R
Rescue by Amino Acids and Esters in the CGC Assay, Rescue (overall yes/no) [1]: yes

CCCCCCNCCC(=O)O [1-Hexyl (B-Alanines), 3(1-Hexylamino)propionic acid]
Rescue by Amino Acids and Esters in the CGC Assay, 10^−6 M [1, 2]: R
Rescue by Amino Acids and Esters in the CGC Assay, 10^−9 M [1, 3]: R
Rescue by Amino Acids and Esters in the CGC Assay, 10^−12 M [1, 4]: R
Rescue by Amino Acids and Esters in the CGC Assay, Rescue (overall yes/no) [1]: yes
melting point: 95 to 97 °C

CCCCCCNCC(=O)O.Cl [1-Hexyl (Glycines), 2-(1-Hexylamino)acetic acid hydrochloride]
Rescue by Amino Acids and Esters in the CGC Assay, 10^−9 M [1, 3]: R
Rescue by Amino Acids and Esters in the CGC Assay, Rescue (overall yes/no) [1]: yes

CCCCCCNCCC#N.Cl [1-Hexyl (Propionitriles), 3-(1-Hexylamino)propionitrile hydrochloride]
Rescue by Amino Nitriles in the CGC Assay, Rescue (overall yes/no) [1]: no
melting point: 188 to 189 °C

CC(C)NCC#N.Cl [2-Propyl (Acetonitriles), 2-(2-Propylamino)acetonitrile hydrochloride]
Rescue by Amino Nitriles in the CGC Assay, 10^−6 M [1, 2]: R
Rescue by Amino Nitriles in the CGC Assay, 10^−9 M [1, 3]: R
Rescue by Amino Nitriles in the CGC Assay, 10^−12 M [1, 4]: R
Rescue by Amino Nitriles in the CGC Assay, Rescue (overall yes/no) [1]: yes
melting point: 166 to 167 °C

CC(C)NCCP(=O)(O)O.Cl [2-Propyl (Amino Phosphonic Acids), 2-(2-Propylamino)ethanephosphonic acid hydrochloride]
Rescue by Amino Phosphonic Acids in the CGC Assay, 10^−6 M [1, 2]: R
Rescue by Amino Phosphonic Acids in the CGC Assay, 10^−9 M [1, 3]: R
Rescue by Amino Phosphonic Acids in the CGC Assay, 10^−12 M [1, 4]: R
Rescue by Amino Phosphonic Acids in the CGC Assay, Rescue (overall yes/no) [1]: yes
melting point: 164 to 166 °C

COC(=O)CCNC(C)C.Cl [2-Propyl (B-Alaninates), Methyl 3-(2-propylamino)propionate hydrochloride]
Rescue by Amino Acids and Esters in the CGC Assay, Rescue (overall yes/no) [1]: no

CC(C)NCCC(=O)O.Cl [2-Propyl (B-Alanines), 3-(2-Propylamino)propionic acid hydrochloride]
Rescue by Amino Acids and Esters in the CGC Assay, 10^−9 M [1, 3]: R
Rescue by Amino Acids and Esters in the CGC Assay, 10^−12 M [1, 4]: R
Rescue by Amino Acids and Esters in the CGC Assay, Rescue (overall yes/no) [1]: yes
melting point: 154 to 155 °C

CC(C)NCC(=O)O.Cl [2-Propyl (Glycines), 2-(2-Propylamino)acetic acid hydrochloride]
Rescue by Amino Acids and Esters in the CGC Assay, 10^−6 M [1, 2]: R
Rescue by Amino Acids and Esters in the CGC Assay, Rescue (overall yes/no) [1]: yes

CC(C)NCCC#N.Cl [2-Propyl (Propionitriles), 3-(2-Propylamino)propionitrile hydrochloride]
Rescue by Amino Nitriles in the CGC Assay, Rescue (overall yes/no) [1]: no

CC(C)N(C)CCC(=O)O [2-Propyl-N-methyl (B-Alanines), 3-(2-Propylmethylamino)propionic acid]
Rescue by Amino Acids and Esters in the CGC Assay, 10^−6 M [1, 2]: R
Rescue by Amino Acids and Esters in the CGC Assay, 10^−9 M [1, 3]: R
Rescue by Amino Acids and Esters in the CGC Assay, Rescue (overall yes/no) [1]: yes

CC(C)N(C)CCC#N.Cl [2-Propyl-N-methyl (Propionitriles), 3-(2-Propylmethylamino)propionitrile hydrochloride]
Rescue by Amino Nitriles in the CGC Assay, Rescue (overall yes/no) [1]: no
melting point: 121 to 121.5 °C

CCC(CC)NCCC#N.Cl [3-Pentyl (Propionitriles), 3-(3-Pentylamino)propionitrile hydrochloride]
Rescue by Amino Nitriles in the CGC Assay, 10^−6 M [1, 2]: R
Rescue by Amino Nitriles in the CGC Assay, 10^−9 M [1, 3]: R
Rescue by Amino Nitriles in the CGC Assay, Rescue (overall yes/no) [1]: yes
melting point: 118.5 to 119.5 °C

CCCCC[C@@H](C)NCCP(=O)(O)O.Cl [R-2-Heptyl (Amino Phosphonic Acids), (R)-2-(2-Heptylamino)ethanephosphonic acid hydrochloride]
Rescue by Amino Phosphonic Acids in the CGC Assay, Rescue (overall yes/no) [1]: yes*

CCCCC[C@@H](C)N(C)CCC(=O)OC.Cl [R-2-Heptyl-N-methyl (B-Alaninates), (R)-Methyl 3-(2-heptylmethylamino)propionate hydrochloride]
Rescue by Amino Acids and Esters in the CGC Assay, 10^−6 M [1, 2]: R
Rescue by Amino Acids and Esters in the CGC Assay, 10^−9 M [1, 3]: R
Rescue by Amino Acids and Esters in the CGC Assay, 10^−12 M [1, 4]: R
Rescue by Amino Acids and Esters in the CGC Assay, Rescue (overall yes/no) [1]: yes

CCCCC[C@@H](C)N(C)CCC(=O)O.Cl [R-2-Heptyl-N-methyl (B-Alanines), (R)-3-(2-Heptylmethylamino)propionic acid hydrochloride]
Rescue by Amino Acids and Esters in the CGC Assay, 10^−6 M [1, 2]: R
Rescue by Amino Acids and Esters in the CGC Assay, 10^−9 M [1, 3]: R
Rescue by Amino Acids and Esters in the CGC Assay, 10^−12 M [1, 4]: R
Rescue by Amino Acids and Esters in the CGC Assay, Rescue (overall yes/no) [1]: yes

CCC[C@@H](C)NCC#N [R-2-Pentyl (Acetonitriles), (R)-2-(2-Pentylamino)acetonitrile]
Rescue by Amino Nitriles in the CGC Assay, 10^−9 M [1, 3]: R
Rescue by Amino Nitriles in the CGC Assay, Rescue (overall yes/no) [1]: yes

CCC[C@@H](C)NCCP(=O)(O)O [R-2-Pentyl (Amino Phosphonic Acids), (R)-2-(2-Pentylamino)ethanephosphonic acid]
Rescue by Amino Phosphonic Acids in the CGC Assay, 10^−6 M [1, 2]: R
Rescue by Amino Phosphonic Acids in the CGC Assay, Rescue (overall yes/no) [1]: yes

CCCCC[C@H](C)NCCP(=O)(O)O.Cl [S-2-Heptyl (Amino Phosphonic Acids), (S)-2-(2-Heptylamino)ethanephosphonic acid hydrochloride]
Rescue by Amino Phosphonic Acids in the CGC Assay, 10^−9 M [1, 3]: R
Rescue by Amino Phosphonic Acids in the CGC Assay, 10^−12 M [1, 4]: R
Rescue by Amino Phosphonic Acids in the CGC Assay, Rescue (overall yes/no) [1]: yes

CCCCC[C@H](C)NCC(=O)O.Cl [S-2-Heptyl (Glycines), (S)-2-(2-Heptylamino)acetic acid hydrochloride]
Rescue by Amino Acids and Esters in the CGC Assay, 10^−6 M [1, 2]: R
Rescue by Amino Acids and Esters in the CGC Assay, 10^−9 M [1, 3]: R
Rescue by Amino Acids and Esters in the CGC Assay, 10^−12 M [1, 4]: R
Rescue by Amino Acids and Esters in the CGC Assay, Rescue (overall yes/no) [1]: yes

(S)-2-(2-Heptylamino)ethane-5-tetrazole hydrochloride [S-2-Heptyl (Amino Tetrazoles)]
Rescue by Amino Tetrazoles in the CGC Assay, Rescue (overall yes/no) [1]: no

Source: patent publication US6984754B1, “Aliphatic amino carboxylic and amino phosphonic acids amino nitriles and amino tetrazoles as cellular rescue agents” (University of Saskatchewan Technologies Inc., priority 1998, dated 2006)
